In patent publication US20250340574A1, “MODULATORS OF CYSTIC FIBROSIS TRANSMEMBRANE CONDUCTANCE REGULATOR” (Vertex Pharmaceuticals Incorporated, priority 2022, published 2025):
Read-outs that look alike come from different tables or passages of the source.

Key:
[1] = target: T1, CFTR (F508del/MF-HBE cells) (Homo sapiens, UniProt P13569, DEL508-508); assay: Ussing chamber assay of CFTR-mediated short-circuit currents, Assay C (0.026 μM to 25 μM, 6 concentrations); type: cell-based; conditions: with 33 nM potentiator and 18 μM Tezacaftor, 20% human serum; for Emax: read-out: C Max activity (%)
T1 construct: human bronchial epithelial (HBE) cells derived from CF subjects heterozygous for F508del and a minimal function CFTR mutation (F508del/MF-HBE); endogenous in cells; host or cells: Primary human bronchial epithelial cells from CF subjects (F508del/MF genotype), differentiated at an air-liquid interface
T1 sequence (P13569 with tags, fused parts or gaps DEL508-508): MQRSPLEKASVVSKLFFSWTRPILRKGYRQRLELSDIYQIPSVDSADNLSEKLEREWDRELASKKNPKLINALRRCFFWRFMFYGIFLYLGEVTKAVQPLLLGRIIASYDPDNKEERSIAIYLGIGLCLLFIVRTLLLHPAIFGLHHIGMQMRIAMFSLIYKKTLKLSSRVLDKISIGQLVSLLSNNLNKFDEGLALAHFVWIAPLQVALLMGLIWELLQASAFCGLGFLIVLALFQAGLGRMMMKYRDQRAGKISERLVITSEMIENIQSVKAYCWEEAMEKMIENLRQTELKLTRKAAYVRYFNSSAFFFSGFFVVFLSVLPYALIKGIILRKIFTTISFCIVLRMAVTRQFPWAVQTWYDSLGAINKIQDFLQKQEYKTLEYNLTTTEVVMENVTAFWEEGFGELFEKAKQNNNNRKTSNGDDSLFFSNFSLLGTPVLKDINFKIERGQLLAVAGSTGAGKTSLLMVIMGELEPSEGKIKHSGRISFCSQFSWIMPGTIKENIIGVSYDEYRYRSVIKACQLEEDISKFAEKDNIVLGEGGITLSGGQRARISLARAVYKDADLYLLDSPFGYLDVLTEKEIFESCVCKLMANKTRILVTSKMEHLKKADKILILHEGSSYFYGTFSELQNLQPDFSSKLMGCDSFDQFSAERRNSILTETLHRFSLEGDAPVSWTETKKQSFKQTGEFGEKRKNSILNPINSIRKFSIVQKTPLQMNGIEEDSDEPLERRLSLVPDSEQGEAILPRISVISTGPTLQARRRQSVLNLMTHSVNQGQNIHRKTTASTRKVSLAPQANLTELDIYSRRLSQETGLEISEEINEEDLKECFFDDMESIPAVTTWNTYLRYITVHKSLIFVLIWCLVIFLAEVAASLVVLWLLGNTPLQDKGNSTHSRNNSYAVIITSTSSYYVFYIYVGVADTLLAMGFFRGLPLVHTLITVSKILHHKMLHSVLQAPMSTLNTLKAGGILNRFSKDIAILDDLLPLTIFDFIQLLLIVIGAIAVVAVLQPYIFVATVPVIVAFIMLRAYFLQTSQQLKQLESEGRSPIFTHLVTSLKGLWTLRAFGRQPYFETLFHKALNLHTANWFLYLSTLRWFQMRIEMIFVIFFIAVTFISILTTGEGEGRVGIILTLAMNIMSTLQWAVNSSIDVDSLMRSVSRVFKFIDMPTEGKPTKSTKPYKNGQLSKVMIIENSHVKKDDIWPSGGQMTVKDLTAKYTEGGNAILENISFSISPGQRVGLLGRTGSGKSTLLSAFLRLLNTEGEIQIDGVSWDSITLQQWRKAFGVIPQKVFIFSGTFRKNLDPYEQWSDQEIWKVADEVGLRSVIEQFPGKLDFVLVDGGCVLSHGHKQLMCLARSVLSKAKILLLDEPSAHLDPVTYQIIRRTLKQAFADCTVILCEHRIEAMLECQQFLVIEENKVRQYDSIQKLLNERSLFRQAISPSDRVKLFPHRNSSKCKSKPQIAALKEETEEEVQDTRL
In short: (§1)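 Short-circuit current was recorded at 37 °C under voltage clamp (0 mV) with amiloride 30 μM apically, forskolin 20 μM activation, then BPO/GlyH-101/inh-172 (20 μM each) to isolate CFTR current. Before recording, corrector exposure lasted 18–24 h with 18 μM tezacaftor, 20% human serum, and 33 nM (dose–response) or 44 nM (1 μM fixed) potentiator, maintained throughout.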

[2] = target: T1, CFTR (F508del/MF-HBE cells); assay: Ussing chamber assay of CFTR-mediated short-circuit currents, Assay D (single concentration of 1 μM); type: cell-based; conditions: with 44 nM potentiator and 18 μM Tezacaftor, 20% human serum; for D activity at 1 μM (%): 18-24 hours
In short: as §1

| Emax ([1]; 18-24 hours) [%] | EC50 [1] [µM] | D activity at 1 μM (%) [2] | Emax [1] [%] | D act. at 1 μM (%) [2] | Structure (SMILES) |
| --- | --- | --- | --- | --- | --- |
| > 60 | < 1 | +++ (+++ is >60%) |  |  | Cc1cccc(CC(C)C)c1-c1nc2nc(c1C)OC[C@@H](CC(C)(C)C)N(Cc1cnc3nc(C4CC4)n(C)c3n1)C(=O)c1cccc(c1)S(=O)(=O)N2 (atropisomer, axis not shown) [Compound I-170] |
| > 60 | < 1 | +++ (+++ is >60%) |  |  | Cc1cccc(CC(C)C)c1-c1nc2nc(c1C)OC[C@@H](COC(C)C)N(Cc1cnc3cc(C(C)C)n(C)c3n1)C(=O)c1cccc(c1)S(=O)(=O)N2 (atropisomer, axis not shown) [Compound I-211] |
| > 60 | < 1 | +++ (+++ is >60%) |  |  | Cc1cccc(C)c1-c1cc2nc(n1)NS(=O)(=O)c1cccc(c1)C(=O)N(Cc1cnc3cc(C4(C)CC4)n(C)c3n1)[C@H](COC(C)C)CO2 [Compound I-240] |
|  | 3 to 30 |  | > 60 | +++ (+++ is >60%) | Cc1cccc(C)c1-c1cc2nc(n1)NS(=O)(=O)c1cccc(c1)C(=O)N(Cc1cnc3oc(-c4ccnn4C)cc3n1)[C@H](CC1(C)CC1)CO2 [IV-30] |
| > 60 | < 1 | +++ (+++ is >60%) |  |  | Cc1cccc(C)c1-c1cc2nc(n1)NS(=O)(=O)c1cccc(c1)C(=O)N(Cc1cnc3oc(C(C)(C)C)cc3n1)[C@H](CC(C)(C)C)CO2 [Compound I-218] |
|  | < 1 |  | > 60 | +++ (+++ is >60%) | Cc1cccc(C)c1-c1cc2nc(n1)NS(=O)(=O)c1cccc(c1)C(=O)N(Cc1cnc3oc(C(C)(C)C)cc3n1)[C@@H](C(C(C)C)C(C)C)CO2 [IV-36] |
| > 60 | < 1 | +++ (+++ is >60%) |  |  | Cc1cccc(CCC(C)C)c1-c1nc2nc(c1C)OC[C@@H](CC(C)(C)C)N(Cc1cnc3oc(C4CC4)cc3n1)C(=O)c1cccc(c1)S(=O)(=O)N2 (atropisomer, axis not shown) [Compound I-204] |
| > 60 | 3 to 30 | +++ (+++ is >60%) |  |  | Cc1cccc(C)c1-c1cc2nc(n1)NS(=O)(=O)c1cccc(c1)C(=O)N(Cc1cnc3oc(C(C)(C)CO)cc3n1)[C@H](CC13CC(C1)C3)CO2 [Compound I-113, (11R)-11-(1-bicyclo[1.1.1]pentanylmethyl)-6-(2,6-dimethylphenyl)-12-[[6-(2-hydroxy-1,1-dimethyl-ethyl)furo[2,3-b]pyrazin-2-yl]methyl]-2,2-dioxo-9-oxa-2λ^6-thia-3,5,12,19-tetrazatricyclo[12.3.1.14,8]nonadeca-1(18),4(19),5,7,14,16-hexaen-13-one] |
|  | < 1 |  | > 60 | +++ (+++ is >60%) | Cc1cccc(C)c1-c1cc2nc(n1)NS(=O)(=O)c1cccc(c1)C(=O)N(Cc1cnc3oc(C4(C)CC4)cc3n1)[C@@H](C(C(C)C)C(C)C)CO2 (stereo in doubt) [IV-31] |
| > 60 | < 1 | +++ (+++ is >60%) |  |  | Cc1cccc(C2CC2)c1-c1nc2nc(c1C)OC[C@@H](CC(C)(C)C)N(Cc1cnc3oc(C4CC4)cc3n1)C(=O)c1cccc(c1)S(=O)(=O)N2 (atropisomer, axis not shown) [Compound I-152] |
|  | 3 to 30 |  | > 60 | +++ (+++ is >60%) | Cc1cccc(C)c1-c1cc2nc(n1)NS(=O)(=O)c1cccc(c1)C(=O)N(Cc1cnc3oc(C(C)(C)C)cc3n1)[C@@H](C(C1CCC1)C1CCC1)CO2 [IV-33] |
|  | 1 to 3 |  | > 60 | +++ (+++ is >60%) | Cc1cccc(CC(C)C)c1-c1nc2nc(c1C)OC[C@@H](CC(C)(C)C)N(Cc1ncc3cc(C(C)(C)C)n(C)c3n1)C(=O)c1cccc(c1)S(=O)(=O)N2 (atropisomer, axis not shown) [IV-47] |
| > 60 | < 1 | +++ (+++ is >60%) |  |  | Cc1cccc(C(C)C)c1-c1nc2nc(c1C)OC[C@@H](CC(C)(C)C)N(Cc1cnc3oc(C4(C)CC4)cc3n1)C(=O)c1cccc(c1)S(=O)(=O)N2 (atropisomer, axis not shown) [Compound I-213] |
